Values after ≈ are worked out from the molar mass of the structure shown. Where a SMILES comes first, the peptide text is derived from it. [ ]: non-standard residue; d: D form. 2Nal = N[C@@H](Cc1ccc2ccccc2c1)C(=O)O
How the values were obtained:
Type in all cases: cell-based
human fibroblast (HFW) = assay: MTT cytotoxicity to normal fibroblasts; conditions: MTT assay
Procedure: Human lung cancer line PC9 and A549, oral squamous cell carcinoma cell line OECM-1 were cultured in RPMI medium supplemented with 10% fetal bovine serum and antibiotic. Human tongue carcinoma cell line SAS, oral cancer cell line C9, and human diploid fibroblast (HFW) were cultured in DMEM medium supplemented with 10% fetal bovine serum and antibiotic. Cells were cultured in a humidified incubator containing 5% CO2 at 37° C.
The MTT assay was employed to determine the in vitro cytotoxicity. All cancer cell lines were seeded in 96-well plate with concentration 5000 cells/100 μl/well and incubated for 24 hours. HFW was seeded with 8000 cells/100 μl/well.
After medium was removed, 100 μl fresh medium containing peptide (ranging from 50 μM to 3.13 μM, HFW was treated with 75 μM and 100 μM peptide additionally) was added to the wells. Following 3, 12 or 24 hour incubation, fresh medium with MTT (0.5 mg/ml) was replaced and incubated for 3 hours. After medium/MTT was removed, DMSO was added at 100 μl for dissolving the formazan crystal. Cell survival rate was calculated by measuring the absorbance at 540 nm using Multi-labeled Microplate Reader (VICTOR3). For cancer cells, medium mixed with H2O2 (aq) represented positive control (all cells died) while medium only represented negative control. For normal cells, medium only represented positive control (all cells lived) while medium mixed with H2O2 (aq) represented negative control (all cells died).
The cytotoxicities of S1 and its analogs on human lung cancer cells (i.e, PC9, PC9-G and A549), human oral cancer cells (i.e, C9, OECM-1, and SAS), and human fibroblast (HFW) were evaluated by MTT assay for 3, 12 and 24 hours.

[1] = tested on: Staphylococcus aureus subsp strain (ATCC 25923, methicillin-resistant); assay: microbe, parasite or virus in culture
Procedure: (§1) Escherichia coli strain (ATCC 25922), Staphylococcus aureus subsp strain (ATCC 25923, methicillin-resistant), and Pseudomonas aeruginosa Migula strain (ATCC 27853, ampicillin-resistant) were used to test the antibacterial activity of the peptides. Bacteria were cultured in sterilized Mueller-Hinton (MH) culturing medium at 200 rpm and 37° C. for 8 hours.
(§2) After 8 hours culture, concentration of the inoculums were determined by measuring absorbance of optical density at 600 nm (OD 600=1, equal to approximately 10^8 CFU/mL) with UV/Visible spectrophotometer.
(§3) The antibacterial activities were determined by the standard broth microdilution method of National Committee for Clinical Laboratory Standards with the LYM broth. The LYM broth contains 5.4 mM KCl, 5.6 mM Na2HPO4, 0.5 mM MgSO4, and 1.0 mM sodium citrate. In addition, 0.4 mg of ZnCl2, 2.0 mg of FeCl3. 6H2O, 0.1 mg of CuSO4. 5H2O, 0.1 mg of MnSO4.H2O, 0.1 mg of Na2B4O7.10H2O, 700 mg of amino acid mixtures without tryptophan (Clontech), and 20 mg of L-Tryptophan were added per liter of medium. A vitamin mixture (100×, Sigma) and glucose at final concentration of 2% were also added.
(§4) 1 μl peptide solutions (ranging from 5000 μg/ml to 78 μg/ml in serial dilution) was prepared and mixed with 99 μl inoculum (5×10^5 CFU/ml) in polypropylene 96-well plate. The turbidity at OD 600 nm was measured by ELISA plate reader (Thermo Max, Molecular Devices, Sunnyvale, Calif.). The absorbance of culture medium and inoculum suspension without peptides were used as the negative and positive control, respectively. The minimum inhibitory concentration (MIC) value is the lowest concentration of peptide at which there is no obvious growth (equal or more than 90%). […] All peptides were tested in triplicate.

[2] = tested on: Escherichia coli strain (ATCC 25922); assay: microbe, parasite or virus in culture; conditions: ATCC25922, E. coli ATCC 25922, LYM control, read-out: Minimum inhibitory concentration (MIC)
Procedure: as §1, §2, §3, §4

Row | MIC [2] | MIC ([1]; Staphylococcus aureus, ATCC25923, S. aureus ATCC 25923, LYM control, read-out: Minimum inhibitory concentration (MIC)) | Compound | degrees of cytotoxicities to HFW (rank order) (human fibroblast (HFW)) | Minimum inhibitory concentration (MIC) ([1]; ATCC 25923, 8 h)
1 |  |  | CC(=O)N[C@@H](Cc1ccc2ccccc2c1)C(=O)N[C@@H](Cc1ccc2ccccc2c1)C(=O)N[C@@H](CCCCN)C(=O)N[C@@H](CCCCN)C(=O)N[C@@H](Cc1c[nH]c2ccccc12)C(=O)N[C@@H](CCCNC(=N)N)C(=O)N[C@@H](CCCCN)C(=O)N[C@@H](Cc1c[nH]c2ccccc12)C(=O)N[C@@H](CC(C)C)C(=O)N[C@@H](C)C(=O)N[C@@H](CCCCN)C(=O)N[C@@H](CCCCN)C(N)=O [Nal2-S1, Ac-Nal-Nal-KKWRKWLAKK-NH2] (Ac-[2Nal][2Nal]KKWRKWLAKK-NH2) | S1 peptide<K4R2-Nal2-S1 peptide<K6-Nal2-S1 peptide<Nal2-S1 peptide | 3.1 µg/mL (≈ 1.72 µM)
2 | 25 µg/mL (≈ 71.5 µM) | 3.1 µg/mL (≈ 8.87 µM) | CC1(C)S[C@@H]2[C@H](NC(=O)[C@H](N)c3ccccc3)C(=O)N2[C@H]1C(=O)O [AP, Ampicillin, reference compound] |  | 
3 |  |  | Ac-KKWRKWLAKK-NH2 [S1, Ac-KKWRKWLAKK-NH2, reference compound] | S1 peptide<K4R2-Nal2-S1 peptide<K6-Nal2-S1 peptide<Nal2-S1 peptide | 
4 |  |  | CC(=O)N[C@@H](CCCCN)C(=O)N[C@@H](CCCCN)C(=O)N[C@@H](CCCCN)C(=O)N[C@@H](CCCCN)C(=O)N[C@@H](CCCCN)C(=O)N[C@@H](CCCCN)C(=O)N[C@@H](Cc1ccc2ccccc2c1)C(=O)N[C@@H](Cc1ccc2ccccc2c1)C(=O)N[C@@H](CCCCN)C(=O)N[C@@H](CCCCN)C(=O)N[C@@H](Cc1c[nH]c2ccccc12)C(=O)N[C@@H](CCCNC(=N)N)C(=O)N[C@@H](CCCCN)C(=O)N[C@@H](Cc1c[nH]c2ccccc12)C(=O)N[C@@H](CC(C)C)C(=O)N[C@@H](C)C(=O)N[C@@H](CCCCN)C(=O)N[C@@H](CCCCN)C(N)=O [K6-Nal2-S1, Ac-KKKKKK-Nal-Nal-KKWRKWLAKK-NH2] (Ac-KKKKKK[2Nal][2Nal]KKWRKWLAKK-NH2) | S1 peptide<K4R2-Nal2-S1 peptide<K6-Nal2-S1 peptide<Nal2-S1 peptide | 

From patent US10093699B2, “Peptides with antimicrobial, anticancer and/or wound-healing promoting activities, pharmaceutical compositions containing the same, and use of the peptides with antimicrobial, anticancer and/or wound-healing promoting activities” (priority 2015, dated 2018)
